Laboratory results taken from patent US9408856B2, “Topical steroidal formulations” (Temple University—Of The Commonwealth System of Higher …, priority 2008, dated 2016).
Entries after “also recorded” stand apart in the source; their conditions may differ.

Columns and labels:
[1] = Oral single dose PK experiment in mice; type: in vivo; settings: 200 mg/kg oral single dose
Method: An oral single dose PK experiment in mice following administration of 200 mg/kg fluasterone was performed. The calculated AUC0-24 was 2,242 (ngXh/mL). A PK study was also performed in 12 human volunteers as part of a phase I fluasterone study. The volunteers received either 800 mg or 1600 mg fluasterone orally as a daily dose. The AUC0-24/mg dose was calculated.

[2] = tested on: dexamethasone-induced thymic and splenic atrophy; experiment: Dexamethasone-induced thymic and splenic atrophy in mice; type: in vivo, CD-1 mice; settings: for protection against DEX-induced thymic and splenic atrophy: CD-1 mice
Method: Administration of dehydroepiandrosterone (DHEA, 60 mg/kg, s.c.) for three days partially reverse thymic and splenic atrophy induced by a single injection of dexamethasone (1.6 mg/mouse). In this experiment, the efficacy of either 10 mg/kg or 20 mg/kg DHEA administered s.c. versus the effect of 10 mg/kg or 20 mg/kg fluasterone was investigated.
5% Cremophor (polyethoxylated castor oil; Sigma Chemicals)-95% saline vehicle was prepared using 95 mL of sterile 0.9% NaCl (filtered through sterile 0.22 micron filter) and 5 mL of Cremophor. The Cremophor was dissolved by swirling for approximately 5 minutes.
Dexamethasone solutions were prepared by dissolving dexamethasone (Sigma Chemicals) in absolute ethanol. For example, 71.9 mg of dexamethasone was dissolved in 2.9 mL of absolute ethanol. In order to prevent precipitation, the solution was kept on a hotplate between injections.
For the 10 mg/kg suspension, 25.7 mg of DHEA was weighed out, transferred to a glass scintillation vial, and 10.3 mL of the Cremophor-saline vehicle was added. The DHEA suspension was homogenized using a Tissumizer at 80% power for 30 sec. The Tissumizer was rinsed with 70% ethanol prior to homogenization. After the 10 mg/kg DHEA suspension was homogenized the probe was rinsed 2× with 50 mL of absolute ethanol, then with 50 mL of 70% ethanol, and then dried with sterile gauze. For the 20 mg/kg DHEA suspension, 50.9 mg DHEA was suspended in 10.2 mL of Cremophor-saline vehicle.
19.4 mg of fluasterone was weighed out and transferred to a glass scintillation vial. 7.8 mL of Cremophor-saline vehicle was added to the vial and the contents of the vial were homogenized with a Tissumizer as described previously. Prior to preparing the 20 mg/kg fluasterone, the probe was rinsed 2× with 50 mL of absolute ethanol and 1× with 50 mL of 70% ethanol. For the 20 mg/kg suspension, 47.0 mg was weighed out and transferred to a glass scintillation vial. 9.4 mL of Cremophor-saline vehicle was added to the vial and the contents of the vial were homogenized with a Tissumizer as described above.
Female CD-1 mice, 43-45 days old, were obtained from Charles River Laboratories. The mice were housed 5 per cage in plastic shoebox cages with ad libitum access to Purina chow 5015 and water in the Pharmacy CAF with 12 hr of alternating light and darkness.
Prior to the experiment the mice were weighed, separated into 6 groups containing 5 mice each and treated as follows:
Mice were treated s.c. with 0.1 mL of 5% Cremophor-95% saline for three days. On the third day, the mice were also treated s.c. with 1.6 mg of dexamethasone dissolved in 0.06 mL of absolute. ethanol.
Mice were treated s.c. with 0.25 mg of DHEA suspended in 0.1 mL of 5% Cremophor-95% saline for three days. On the third day, the mice were also treated s.c. with 1.6 mg of dexamethasone dissolved in 0.06 mL of absolute ethanol.
Mice were treated s.c. with 0.5 mg of DHEA suspended in 0.1 mL of 5% Cremophor-95% saline for three days. On the third day, the mice were also treated s.c. with 1.6 mg of dexamethasone dissolved in 0.06 mL of absolute ethanol.
Mice were treated s.c. with 0.25 mg of fluasterone suspended in 0.1 mL of 5% Cremophor-95% saline for three days. On the third day, the mice were also treated s.c. with 1.6 mg of dexamethasone dissolved in 0.06 mL of absolute ethanol.
Mice were treated s.c. with 0.5 mg of fluasterone suspended in 0.1 mL of 5% Cremophor-95% saline for three days. On the third day, the mice were also treated s.c. with 1.6 mg of dexamethasone dissolved in 0.06 mL of absolute ethanol.
All s.c. injections were made in the nape. All mice were lightly anesthetized while the s.c. injections were done.
Twenty-four hours after dexamethasone treatment, the mice were euthanized by an overdose of isoflurane. The spleen and thymus were removed, cleaned of any adventitia, rinsed, blotted on filter paper, and weighed. […]

[3] = tested on: TPA-stimulated epidermal DNA synthesis in mouse epidermis; experiment: TPA-induced epidermal DNA synthesis in mouse epidermis, oral fluasterone; type: in vivo, CD-1 mice; settings: Table 20; TPA 2 μg topical after sesame oil and suspension vehicle p.o. only; 20 h; group mean
[4] = Table 12, 10 mg/kg s.c. 3 days + dexamethasone 1.6 mg s.c. on day 3, 24 h after dexamethasone
[5] = Table 12, 20 mg/kg s.c. 3 days + dexamethasone 1.6 mg s.c. on day 3, 24 h after dexamethasone
[6] = Table 14, micronized steroid 10 mg/kg + dexamethasone
[7] = Table 14, micronized steroid 20 mg/kg + dexamethasone
[8] = Table 15, steroid 10 mg/kg in Cremophor-saline + dexamethasone
[9] = Table 16, steroid 5 mg/kg + dexamethasone
[10] = Table 16, steroid 10 mg/kg + dexamethasone

SMILES: C[C@]12CCCCC1=CC[C@@H]1[C@@H]2CC[C@]2(C)C(=O)[C@H](F)C[C@@H]12 [Fluasterone, 16α-fluoro-5-androsten-17-one]
- AUC0-24 [1]: 2,242 ngXh/mL
- protection against DEX-induced thymic and splenic atrophy ([2]; 5 mg/kg): significant protection
- protection against DEX-induced thymic and splenic atrophy ([2]; 10 mg/kg): highly active; also recorded: as active as DHEA at 60 mg/kg
- potency relative to DHEA in protecting against dexamethasone-induced thymic and splenic atrophy ([2]; Example 8, micronized): about 6 ×
- Body Weight [2, 4]: 24.3 ± 1.0
- Spleen wt [2, 4]: 77.5 ± 14.4
- Spleen wt/BW [2, 4]: 3.2 ± 0.5
- Thymus wt [2, 4]: 60.9 ± 5.2
- Thymus wt/BW [2, 4]: 2.5 ± 0.3
- Body Weight [2, 5]: 25.2 ± 0.6
- Spleen wt [2, 5]: 73.9 ± 13.8
- Spleen wt/BW [2, 5]: 2.9 ± 0.6
- Thymus wt [2, 5]: 60.8 ± 5.3
- Thymus wt/BW [2, 5]: 2.4 ± 0.2
- Body Weight [2, 6]: 26.7 ± 3.6
- Spleen wt [2, 6]: 83.0 ± 6.2
- Spleen wt/BW [2, 6]: 3.1 ± 0.3
- Thymus wt [2, 6]: 68.0 ± 11.5
- Thymus wt/BW [2, 6]: 2.5 ± 0.3
- Body Weight [2, 7]: 27.2 ± 3.1
- Spleen wt [2, 7]: 83.1 ± 7.9
- Spleen wt/BW [2, 7]: 3.1 ± 0.4
- Thymus wt [2, 7]: 66.3 ± 9.0
- Thymus wt/BW [2, 7]: 2.4 ± 0.2
- Body Weight [2, 8]: 24.8 ± 0.8
- Spleen wt [2, 8]: 80.0 ± 7.7
- Spleen wt/BW [2, 8]: 3.2 ± 0.4
- Thymus wt [2, 8]: 67.5 ± 3.9
- Thymus wt/BW [2, 8]: 2.7 ± 0.2
- Body Weight [2, 9]: 25.7 ± 1.7
- Spleen wt [2, 9]: 62.0 ± 10.2
- Spleen wt/BW [2, 9]: 2.4 ± 0.3
- Thymus wt [2, 9]: 50.8 ± 10.9
- Thymus wt/BW [2, 9]: 2.0 ± 0.3
- Body Weight [2, 10]: 25.2 ± 1.4
- Spleen wt [2, 10]: 89.4 ± 12.3
- Spleen wt/BW [2, 10]: 3.5 ± 0.4
- Thymus wt [2, 10]: 65.6 ± 4.4
- Thymus wt/BW [2, 10]: 2.6 ± 0.2
- Approximate Potency Compared to Fluasterone in Protecting Against DEX-induced Thymic and Splenic Involution ([2]; fluasterone = 1, mice): 1
- rank of activity among steroids tested against DEX-induced thymic and splenic involution ([2]; mice): most active steroid tested
- rank of activity among steroids tested against DEX-induced thymic and splenic involution ([2]; mice, listed as fluasterone): most potent compound

SMILES: CCCCCCCCCCCCCC(=O)O[C@@H]1[C@@H](C)[C@@]2(O)[C@@H](C=C(CO)C[C@]3(O)C(=O)C(C)=C[C@@H]23)[C@@H]2C(C)(C)[C@]12OC(C)=O [TPA, 12-O-tetradecanoylphorbol-13-acetate, reference compound]
- cpm/μg DNA [3]: 374.1 ± 16.8 cpm/μg DNA
- dpm/μg DNA [3]: 603.4 ± 36.8 dpm/μg DNA
